The test system of series [1] is K-562. The series can be described thus: LDH release (cell membrane integrity), K-562. Particulars: Homo sapiens, K562, 4 h, read-out: LDH (% of total). The series is classed as cell-based. Here is the method:
(§1) FIGS. 6A and 6B depict cell viability and growth rates for K562 cell line following taurolidine treatment, in terms of % trypan blue negative cells and % cell number, respectively. Cells were treated with various concentrations of taurolidine for 4 hours in AIM-V+0.01% BCS. After aliquots were collected for LDH assay, the remainder of the culture was rinsed in HBSS and resuspended in RPMI+10% BCS without taurolidine. Counts of trypan blue-negative cells (FIG. 6A), and total cell number (FIG. 6B), were recorded daily thereafter (with the measurement at Day 1 being made immediately after the 4 hour taurolidine treatment). Conditions were: no treatment (open circles); 25 μg/ml taurolidine (closed circles); 50 μg/ml taurolidine (open squares); 100 μg/ml taurolidine (closed squares); and vehicle alone (closed triangles). Doubling times were determined under each condition, and expressed as a percentage of the rate of doubling of untreated cells. […]
(§2) In these experiments, integrity of cell membranes following taurolidine treatment was assessed by exclusion of trypan blue and by measuring the release of LDH in MM6, K-562, HL-60, and REH cells. […] A parallel aliquot of cells was lysed by three cycles of freeze/thaw and the quantity of LDH released was taken to be 100%. […]
(§3) ^a LDH was measured immediately after four hour taurolidine treatment.

The subject of series [2] is REH. In words: LDH release (cell membrane integrity), REH. Format: cell-based. Particulars: Homo sapiens, 4 h, read-out: LDH (% of total). Here is the method: as §1, with “8A” for “6A”, “8B” for “6B”, “REH” for “K562”, “8A),” for “6A),”, “8B),” for “6B),”
as §2, §3

Series [3] relates to Jurkat cells. In words: trypan blue exclusion, Jurkat. The series is classed as cell-based, human. Particulars: 25 μg/ml taurolidine. The method, then: as §1, with “9A” for “6A”, “9B” for “6B”, “Jurkat” for “K562”, “9A),” for “6A),”, “9B),” for “6B),”, “cells. These values are located to the right of the growth curves in (FIG. 9B).” for “cells.”
HL-60 cells treated with 50 μl taurolidine. In these samples, LDH present in the culture medium was 8.3±2.3% of that released by completely lysed cells, compared with 2.3±0.8% measured in control cultures. […] After 4 hour treatment, cells were rinsed and returned to growth medium and monitored for viability and growth over the following 3 days. […]

The test system of series [4] is REH. In words: TUNEL / propidium iodide flow cytometry, REH. The series is classed as cell-based, human. Here is the method: In the second method, DNA fragmentation was detected via TUNEL assay according to the manufacturer's instructions. With this methodology, 2×10^6 cells were fixed with 2% paraformaldehyde, permeabilized with 0.1% Triton X-100/0.1% citrate, incubated at 37° C. with terminal deoxynucleotidyl transferase and FITC-dUTP, rinsed and analyzed by flow cytometry. Enhanced FITC signal indicates apoptosis-specific DNA fragmentation. Gavriali, et al, "Identification of programmed cell death in situ via specific labeling of nuclear DNA fragmentation," J Cell Biol 119:493 (1992). Parallel aliquots of unfixed cells were treated with PI and FITC-conjugated anti-CD14 and analyzed by flow cytometry, in order to identify cells with permeable cell membranes (since PI binds to DNA but is excluded from cells with intact plasma membranes) and also to determine the cell-specificity of the apoptotic signal.
In another study, TUNEL assays were performed on all cell lines 6 hours after cells were initially exposed to taurolidine (cells were treated for 4 hours, rinsed, and then incubated for 2 more hours before TUNEL assay was performed).
. Taurolidine and anisomycin induced apoptosis in MM6, HL-60, and Jurkat cells (Table VIII). MM6 and HL-60 cells were similarly effected, with >80% TUNEL-positive cells after 6 hours. Jurkat cells were less sensitive, with approximately 50% of cells induced to undergo apoptosis after taurolidine treatment. After 6 hours, 73% of anisomycin-treated REH cells were apoptotic, with less than 20% of taurolidine-treated REH cells being TUNEL-positive. However, assay of cells 24 hours after
^a Analysis by flow cytometry after staining cells with propidium
iodide and processing for TUNEL.
Data are percent of total cell-size events, and are expressed as mean ±
Cells were treated for 4 hours with taurolidine (100 μg/ml) or
anisomycin (1 μg/ml), and then assayed at 6 hours.
Data are percent of total cell-sized events, and are expressed as mean ±
anisomycin (1 μg/ml), and then assayed at 24 hours.

The conditions of series [5]: intravenous administration; cited from earlier work.

We go through 1 molecule from patent US6303596A, “Use of taurolidine for treatment of leukemias” (priority 2000, dated 2001).

The structures appear in SMILES notation.

As for `O=S1(=O)CCN(CN2CCS(=O)(=O)NC2)CN1` [taurolidine, 4,4'-methylenebis(perhydro-1,2,4-thiadiazin 1,1-dioxide)], the cytotoxicity at 50 µg/mL worked out at 6% in series [1] (K-562, 50 μg/ml) and 6% in series [2] (50 μg/ml). Also, the cytotoxicity at 100 µg/mL in series [1] (K-562, 100 μg/ml) was 8%; in series [2] (100 μg/ml), 5%. The “trypan blue staining after treatment” value in series [3] was “did not show an increase in trypan blue staining”. In series [4], the “rate of apoptosis induction versus anisomycin” value is “less rapidly than with anisomycin treatment”. In series [4] (taurolidine 100 μg/ml or anisomycin 1 μg/ml for 4 h, assayed at 24 hours, mean ± SD), the “% TUNEL-positive” value worked out at 81.4 ± 4.4%. The “alterations in hematologic variables, including white cell count” value in series [5] was “does not cause detectable alterations”.
